Test results published in EPA's ToxRefDB 2.

Assays:
rat [1] = conditions: Multigenerational reproductive toxicity study, sprague dawley, Oral, Feed, dose end: 2 generation
rat [2] = conditions: Fertility (Segment I), Oral, Gavage/Intubation, dose end: 1 generation
rat [3] = conditions: Prenatal developmental toxicity study, Oral, Gavage/Intubation, dose end: 18 GD
rat [4] = conditions: Fertility (Segment I), Oral, Gavage/Intubation, dose end: 1 generation; remark: listed apart in the source
rat [5] = conditions: Multigenerational reproductive toxicity study, sprague dawley, Oral, Feed, dose end: 2 generation; remark: listed apart in the source
rat [6] = conditions: Prenatal developmental toxicity study, sprague dawley, Oral, Gavage/Intubation, dose end: 15 GD
rabbit = conditions: Prenatal developmental toxicity study, himalayan, Inhalation, Whole-Body, dose end: 29 GD
rat [7] = conditions: Prenatal developmental toxicity study, wistar, Inhalation, Whole-Body, dose end: 15 GD
[8] = group: offspring, systemic / in life observation / body weight / offspring (pup) weight
[9] = group: parental, systemic / pathology microscopic / stomach / proliferation
[10] = group: maternal, reproductive / reproductive performance / estrous cycle / abnormal + reproductive / reproductive performance / estrous cycle / corpora lutea…
[11] = group: parental, systemic / in life observation / clinical signs / alopecia
[12] = group: parental, systemic / in life observation / clinical signs / alopecia + systemic / in life observation / body weight / body weight + systemic / in life…
[13] = group: developmental, developmental / developmental malformation / eye / microphthalmia + developmental / developmental malformation / general / situs inversus + …
[14] = group: maternal, reproductive / reproductive performance / postimplantation loss / postimplantation loss + reproductive / reproductive performance / …
[15] = group: maternal, reproductive / reproductive performance / fertility / fertility + reproductive / reproductive performance / pregnancy index / pregnancy …
[16] = group: parental, systemic / in life observation / body weight / body weight + systemic / in life observation / clinical signs / body surface staining + …
[17] = group: parental, systemic / in life observation / clinical signs / convulsions
[18] = group: parental, systemic / in life observation / body weight / body weight + systemic / in life observation / body weight / body weight gain
[19] = group: developmental, developmental / developmental malformation / bone / delayed ossification
[20] = group: developmental, developmental / developmental malformation / bone / delayed ossification + developmental / developmental malformation / ureter / distended
[21] = group: maternal, systemic / in life observation / body weight / body weight gain + systemic / in life observation / food consumption / food consumption
[22] = group: maternal, systemic / in life observation / body weight / body weight gain + systemic / in life observation / food consumption / food consumption + …
[23] = group: developmental, developmental / developmental malformation / heart / [other] + developmental / developmental malformation / limb / [other]
[24] = group: maternal, systemic / in life observation / mortality / mortality
[25] = group: developmental, developmental / developmental malformation / bone / incomplete ossification + developmental / developmental malformation / bone / …
[26] = group: developmental, developmental / developmental malformation / bone / malpositioned

O=C([O-])C1C2CCC(O2)C1C(=O)[O-].[Na+].[Na+] (stereo not drawn) [Disodium endothal]
LEL (rat [1]; [8]): 10.9 mg/kg/day | LOAEL (rat [1]; [8]): 77.1 mg/kg/day | NEL (rat [1]; [8]): 2.1 mg/kg/day | NOAEL (rat [1]; [8]): 10.9 mg/kg/day | LEL (rat [1]; [9]): 2.1 mg/kg/day | LOAEL (rat [1]; [9]): 2.1 mg/kg/day | NEL (rat [1]; [9]): < 2.1 mg/kg/day | NOAEL (rat [1]; [9]): < 2.1 mg/kg/day

O=C(N[C@H]1CN2CCC1CC2)c1cc2ccoc2cn1
LEL (rat [2]; [10]): 150 mg/kg/day | LOAEL (rat [2]; [10]): > 150 mg/kg/day | NEL (rat [2]; [10]): 50 mg/kg/day | NOAEL (rat [2]; [10]): ≥ 150 mg/kg/day | LEL (rat [2]; [11]): 5 mg/kg/day | NEL (rat [2]; [11]): < 5 mg/kg/day | LOAEL (rat [2]; [12]): > 150 mg/kg/day | NOAEL (rat [2]; [12]): ≥ 150 mg/kg/day | LOAEL (rat [3]; [13]): > 150 mg/kg/day | NOAEL (rat [3]; [13]): ≥ 150 mg/kg/day | LEL (rat [3]; group: developmental, developmental / developmental malformation / great vessels / [other]): 20 mg/kg/day | LOAEL (rat [3]; [14]): > 150 mg/kg/day | NEL (rat [3]; [14]): 5 mg/kg/day | NOAEL (rat [3]; [14]): ≥ 150 mg/kg/day | LEL (rat [3]; group: maternal, systemic / in life observation / clinical signs / alopecia): 20 mg/kg/day | LEL (rat [4]; [15]): 150 mg/kg/day | LOAEL (rat [4]; [15]): > 175 mg/kg/day | NEL (rat [4]; [15]): 75 mg/kg/day | NOAEL (rat [4]; [15]): ≥ 175 mg/kg/day | LOAEL (rat [4]; [16]): > 175 mg/kg/day | NOAEL (rat [4]; [16]): ≥ 175 mg/kg/day | LEL (rat [4]; [17]): 7 mg/kg/day | NEL (rat [4]; [17]): < 7 mg/kg/day

CC1COc2ccccc2N1C(=O)C(Cl)Cl (stereo not drawn) [Benoxacor]
LEL (rat [5]; [8]): 45.5 mg/kg/day | LOAEL (rat [5]; [8]): 45.5 mg/kg/day | NEL (rat [5]; [8]): 4.2 mg/kg/day | NOAEL (rat [5]; [8]): 4.2 mg/kg/day | LEL (rat [5]; [18]): 34.8 mg/kg/day | LOAEL (rat [5]; [18]): 34.8 mg/kg/day | NEL (rat [5]; [18]): 3.55 mg/kg/day | NOAEL (rat [5]; [18]): 3.55 mg/kg/day

COC[C@H](C)N(C(=O)CCl)c1c(C)csc1C [Dimethenamid-P]
LEL (rat [6]; [19]): 150 mg/kg/day | LOAEL (rat [6]; [19]): 150 mg/kg/day | NEL (rat [6]; [20]): 25 mg/kg/day | NOAEL (rat [6]; [20]): 25 mg/kg/day | LOAEL (rat [6]; [21]): 25 mg/kg/day | NOAEL (rat [6]; [21]): < 25 mg/kg/day | LEL (rat [6]; [22]): 25 mg/kg/day | NEL (rat [6]; [22]): < 25 mg/kg/day

CC(C)CCO [Isopentyl alcohol]
LEL (rabbit; [23]): 0.5 ppm | LOAEL (rabbit; [23]): > 10 ppm | NEL (rabbit; [23]): < 0.5 ppm | NOAEL (rabbit; [23]): ≥ 10 ppm | LEL (rabbit; [24]): 2.5 ppm | LOAEL (rabbit; [24]): 2.5 ppm | NEL (rabbit; [24]): 0.5 ppm | NOAEL (rabbit; [24]): 0.5 ppm | LOAEL (rat [7]; [25]): > 10 ppm | NOAEL (rat [7]; [25]): ≥ 10 ppm | LEL (rat [7]; [26]): 0.5 ppm | NEL (rat [7]; [26]): < 0.5 ppm | LEL (rat [7]; [24]): 0.5 ppm | LOAEL (rat [7]; [24]): > 10 ppm | NEL (rat [7]; [24]): < 0.5 ppm | NOAEL (rat [7]; [24]): ≥ 10 ppm
